Source: ChEMBL document CHEMBL5579899, “Discovery and In Vivo Exploration of 1,3,4-Oxadiazole and α-Fluoroacrylate Containing IL-17 Inhibitors” (J Med Chem, 2024)
Converted amounts (≈) assume the structure as drawn. Each block holds one compound with its values, some of them ahead of it.

How the values were obtained:
[1] = Inhibition of IL-6 production in IL-17/TNF-alpha stimulated human NHDF cells incubated for 24 hrs by ELISA; type: functional, cell-based; conditions: for IC50: 24 h
[2] = Metabolic stability in rat liver microsomes assessed as intrinsic clearance; type: ADME, Microsome; conditions: read-out: CLH
[3] = AUC in Sprague-Dawley rat at 3 mg/kg,po measured upto 24 hrs by LC-MS/MS analysis; type: ADME, organism-based; conditions: in vivo; for AUC: po, 3 mg/kg, 24 h
[4] = Plasma clearance in Sprague-Dawley rat at 1 mg/kg,iv measured upto 24 hrs by LC-MS/MS analysis; type: ADME, organism-based
[5] = Equilibrium solubility of compound […] at pH 6.8 by high-throughput analysis; type: physicochemical
[6] = Lipophilicity, logD of compound at pH 7.4; type: physicochemical; conditions: buffer
[7] = Oral bioavailability in Sprague-Dawley rat at 3 mg/kg measured upto 24 hrs by LC-MS/MS analysis; type: ADME, organism-based; conditions: in vivo; for F: po, 3 mg/kg, 24 h
[8] = Apparent permeability coefficient of the compound across apical to basolateral side in dog MDCK cells by high-throughput analysis; type: ADME, cell-based, Canis lupus familiaris
[9] = Inhibition of biotinylated human IL-17A/AF647-labeled human IL-17RA protein-protein interaction preincubated for 30 mins with compound followed by addition of AF647-labeled human IL-17RA incubated for 90 min by TR-FRET assay
[10] = Metabolic stability in human liver microsomes assessed as intrinsic clearance; type: ADME, Microsome; conditions: read-out: CLH
[11] = Inhibition of CXCL1 production in IL-17A stimulated rat IEC-6 cells; type: functional
[12] = Toxicity in dog at >=200 mg/kg,administrated for 2 weeks; type: organism-based, Canis lupus familiaris; conditions: in vivo, 336 h
[13] = GSH reactivity in aqueous buffer at pH 7.4 assessed as GSH-adduct formation by measuring half life; type: physicochemical
[14] = Inhibition of CXCL1 production in IL-17A stimulated rat IEC-6 cells assessed as fold change in inhibition of CXCL1 release; type: functional
[15] = AUClast in C57BL/6 mouse at 3 mg/kg,po measured upto 24 hrs by LC-MS/MS analysis; type: ADME, organism-based; conditions: in vivo
Rattus norvegicus [16] = test: Antiarthritic activity in antigen-induced arthritis Lewis rat model assessed as reduction in knee swelling at po bid administrated for 4 days; type: functional, organism-based; conditions: time 4.0 day
[17] = Half life in Sprague-Dawley rat at 1 mg/kg,iv or 3 mg/kg,po measured upto 24 hrs by LC-MS/MS analysis; type: ADME, organism-based; conditions: in vivo
[18] = Plasma protein binding in mouse assessed as unbound fraction; type: ADME, cell-free
Rattus norvegicus [19] = test: Antiarthritic activity in antigen-induced arthritis Lewis rat model assessed as reduction in knee swelling at 1 mg/kg,po bid administrated for 4 days; type: functional; set-up: scale not given: the % may be the effect or the level left; conditions: time 4 day
[20] = Metabolic stability in human hepatocyte assessed as clearance measured per million cells; type: ADME, cell-based; conditions: hepatocytes
[21] = Metabolic stability in dog liver microsomes assessed as intrinsic clearance; type: ADME, Canis lupus familiaris, Microsome; conditions: read-out: CLH
[22] = Plasma protein binding in dog assessed as unbound fraction; type: ADME, cell-free, Canis lupus familiaris
[23] = AUClast in Sprague-Dawley rat at 3 mg/kg,po measured upto 24 hrs by LC-MS/MS analysis; type: ADME, organism-based; conditions: in vivo
[24] = Half life in Beagle dog at 0.1 mg/kg,iv or 0.3 mg/kg,po measured upto 24 hrs by LC-MS/MS analysis; type: ADME, organism-based, Canis lupus familiaris; conditions: in vivo
[25] = Oral bioavailability in C57BL/6 mouse at 3 mg/kg measured upto 24 hrs by LC-MS/MS analysis; type: ADME, organism-based; conditions: in vivo
[26] = Metabolic stability in rat hepatocyte assessed as clearance measured per million cells; type: ADME, cell-based; conditions: hepatocytes
[27] = Metabolic stability in dog hepatocyte assessed as clearance measured per million cells; type: ADME, cell-based, Canis lupus familiaris; conditions: hepatocytes
[28] = target: T1, Muscarinic acetylcholine receptor M2 (Homo sapiens, UniProt P08172); test: Inhibition of muscarinic M2 receptor (unknown origin); type: toxicity
T1 sequence (P08172 whole entry): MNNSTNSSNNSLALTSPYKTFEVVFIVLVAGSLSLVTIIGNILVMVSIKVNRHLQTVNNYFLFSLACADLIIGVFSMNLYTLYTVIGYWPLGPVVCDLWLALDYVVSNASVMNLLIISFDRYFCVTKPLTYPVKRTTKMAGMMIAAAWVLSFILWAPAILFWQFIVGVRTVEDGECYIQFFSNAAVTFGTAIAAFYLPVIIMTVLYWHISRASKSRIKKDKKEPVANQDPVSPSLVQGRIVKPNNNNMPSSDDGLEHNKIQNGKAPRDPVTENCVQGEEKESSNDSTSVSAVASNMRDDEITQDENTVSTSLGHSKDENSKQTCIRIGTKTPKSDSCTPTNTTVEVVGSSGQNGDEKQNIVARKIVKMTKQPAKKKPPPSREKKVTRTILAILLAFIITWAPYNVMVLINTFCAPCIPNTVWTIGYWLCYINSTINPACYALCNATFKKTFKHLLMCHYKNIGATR

[29] = Plasma protein binding in rat assessed as unbound fraction; type: ADME, cell-free
[30] = Metabolic stability in mouse liver microsomes assessed as intrinsic clearance; type: ADME, Microsome; conditions: read-out: CLH
[31] = Toxicity in dog assessed as morphological change in liver at 200 mg/kg administrated for 2 weeks; type: organism-based, Canis lupus familiaris; conditions: in vivo, 336 h
[32] = Toxicity in dog assessed as increase in serum liver enzyme at 200 mg/kg administrated for 2 weeks; type: organism-based, Canis lupus familiaris; conditions: in vivo, 336 h
[33] = Testicular toxicity in dog >=75 mg/kg administration for 2 weeks; type: organism-based, Canis lupus familiaris; conditions: in vivo, 336 h
[34] = Oral bioavailability in Beagle dog at 0.3 mg/kg measured upto 24 hrs by LC-MS/MS analysis; type: ADME, organism-based, Canis lupus familiaris; conditions: in vivo
Bile salt export pump = Bile salt export pump (Homo sapiens, UniProt O95342); test: Inhibition of BSEP (unknown origin); type: toxicity
Sequence of Bile salt export pump (O95342 whole entry): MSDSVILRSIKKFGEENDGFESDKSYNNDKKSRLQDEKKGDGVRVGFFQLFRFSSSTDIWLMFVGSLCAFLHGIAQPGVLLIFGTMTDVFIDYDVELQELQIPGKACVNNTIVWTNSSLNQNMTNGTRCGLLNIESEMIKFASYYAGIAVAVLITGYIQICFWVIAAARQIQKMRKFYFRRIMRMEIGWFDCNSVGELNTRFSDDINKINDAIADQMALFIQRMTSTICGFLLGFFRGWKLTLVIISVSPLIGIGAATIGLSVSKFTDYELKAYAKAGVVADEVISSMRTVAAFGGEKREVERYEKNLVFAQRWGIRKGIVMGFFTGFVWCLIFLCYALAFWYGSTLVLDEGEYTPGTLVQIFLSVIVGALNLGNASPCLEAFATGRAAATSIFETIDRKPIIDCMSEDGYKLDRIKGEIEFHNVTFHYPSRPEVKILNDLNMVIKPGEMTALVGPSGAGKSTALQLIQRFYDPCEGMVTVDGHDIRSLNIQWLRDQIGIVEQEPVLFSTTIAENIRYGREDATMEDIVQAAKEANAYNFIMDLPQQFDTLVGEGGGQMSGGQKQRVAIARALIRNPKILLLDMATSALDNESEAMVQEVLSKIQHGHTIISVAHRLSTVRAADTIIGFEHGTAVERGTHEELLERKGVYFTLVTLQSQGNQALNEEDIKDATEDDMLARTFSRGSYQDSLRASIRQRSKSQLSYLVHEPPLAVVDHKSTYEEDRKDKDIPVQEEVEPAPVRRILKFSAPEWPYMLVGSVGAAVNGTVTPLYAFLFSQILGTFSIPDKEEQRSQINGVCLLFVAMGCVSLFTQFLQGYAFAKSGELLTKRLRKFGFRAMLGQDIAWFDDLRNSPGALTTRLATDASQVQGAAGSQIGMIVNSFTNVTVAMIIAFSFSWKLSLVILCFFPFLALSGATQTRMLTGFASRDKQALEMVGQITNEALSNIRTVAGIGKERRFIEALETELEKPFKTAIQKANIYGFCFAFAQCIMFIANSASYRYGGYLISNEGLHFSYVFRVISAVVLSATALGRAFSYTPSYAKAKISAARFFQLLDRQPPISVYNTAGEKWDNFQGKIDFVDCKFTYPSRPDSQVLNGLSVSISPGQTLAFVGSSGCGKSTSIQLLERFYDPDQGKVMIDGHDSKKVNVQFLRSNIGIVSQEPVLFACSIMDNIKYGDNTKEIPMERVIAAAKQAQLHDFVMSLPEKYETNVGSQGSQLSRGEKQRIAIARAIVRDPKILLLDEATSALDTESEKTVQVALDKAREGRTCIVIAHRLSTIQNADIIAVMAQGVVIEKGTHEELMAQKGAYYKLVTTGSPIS

[35] = Toxicity in rat assessed as maximal tolerated dose administrated for 2 weeks; conditions: in vivo
[36] = Half life in C57BL/6 mouse at 1 mg/kg,iv or 3 mg/kg,po measured upto 24 hrs by LC-MS/MS analysis; type: ADME, organism-based; conditions: in vivo
[37] = Toxicity in dog assessed as maximal tolerated dose administrated for 2 weeks; set-up: species or system Canis lupus familiaris; conditions: in vivo
[38] = Volume of distribution at steady state in C57BL/6 mouse at 1 mg/kg,iv or 3 mg/kg,po measured upto 24 hrs by LC-MS/MS analysis; type: ADME, organism-based; conditions: in vivo, read-out: Vdss
[39] = Volume of distribution at steady state in Beagle dog at 0.1 mg/kg,iv or 0.3 mg/kg,po measured upto 24 hrs by LC-MS/MS analysis; type: ADME, organism-based, Canis lupus familiaris; conditions: in vivo, read-out: Vdss
[40] = target: T2, Solute carrier organic anion transporter family member 1B1 (Homo sapiens, UniProt Q9Y6L6); test: Inhibition of OATP1B1 (unknown origin); type: toxicity
T2 sequence (Q9Y6L6 whole entry): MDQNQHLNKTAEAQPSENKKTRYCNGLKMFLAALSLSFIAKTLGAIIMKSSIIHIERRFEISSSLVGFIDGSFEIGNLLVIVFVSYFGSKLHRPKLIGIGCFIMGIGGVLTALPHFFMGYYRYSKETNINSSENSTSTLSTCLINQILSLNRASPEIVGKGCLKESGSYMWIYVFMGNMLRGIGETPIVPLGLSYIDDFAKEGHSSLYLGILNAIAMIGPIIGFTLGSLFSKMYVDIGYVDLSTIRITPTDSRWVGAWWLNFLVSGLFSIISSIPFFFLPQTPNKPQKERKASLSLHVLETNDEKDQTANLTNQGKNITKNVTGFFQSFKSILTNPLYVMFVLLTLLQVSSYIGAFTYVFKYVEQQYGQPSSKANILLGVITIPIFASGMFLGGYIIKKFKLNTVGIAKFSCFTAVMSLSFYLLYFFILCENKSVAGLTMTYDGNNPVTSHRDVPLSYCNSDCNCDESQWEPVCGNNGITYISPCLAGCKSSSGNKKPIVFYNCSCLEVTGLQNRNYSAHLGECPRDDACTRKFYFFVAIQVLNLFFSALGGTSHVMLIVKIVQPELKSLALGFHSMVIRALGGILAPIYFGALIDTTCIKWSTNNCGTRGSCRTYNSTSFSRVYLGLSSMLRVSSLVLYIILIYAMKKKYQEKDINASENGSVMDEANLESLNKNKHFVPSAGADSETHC

[41] = AUClast in Beagle dog at 0.3 mg/kg,po measured upto 24 hrs by LC-MS/MS analysis; type: ADME, organism-based, Canis lupus familiaris; conditions: in vivo
[42] = Testicular toxicity in rat at >=100 mg/kg administration for 2 weeks; type: organism-based; conditions: in vivo, 336 h
[43] = Volume of distribution at steady state in Sprague-Dawley rat at 1 mg/kg,iv or 3 mg/kg,po measured upto 24 hrs by LC-MS/MS analysis; type: ADME, organism-based; conditions: in vivo, read-out: Vdss
Rattus norvegicus [44] = test: Antiarthritic activity in antigen-induced arthritis Lewis rat model assessed as reduction in knee swelling at 30 mg/kg,po bid administrated for 4 days; type: functional; set-up: scale not given: the % may be the effect or the level left; conditions: time 4 day
[45] = Plasma protein binding in human assessed as unbound fraction; type: ADME, cell-free
Rattus norvegicus [46] = test: Antiarthritic activity in antigen-induced arthritis Lewis rat model assessed as reduction in knee swelling at 10 mg/kg,po bid administrated for 4 days; type: functional; set-up: scale not given: the % may be the effect or the level left; conditions: time 4 day

Structure (SMILES): COC[C@H](c1cnn2cc([C@@H](NC(=O)/C(F)=C3\CCOC3)C3CCC(F)(F)CC3)nc2c1)N1C[C@@H](C(F)(F)F)NC1=O
IC50 [1]: 34 nM
microsomal CLint [2]: 321 µL/min/mg
AUC at 24 h ([3]; Sprague-Dawley): 0.08 µM·h
clearance [4]: 42 mL/min/kg
solubility [5]: > 750 µM
logD [6]: 2.6
bioavailability ([7]; Sprague-Dawley): 4%
Papp A→B [8]: 7.4 ×10⁻⁶ cm/s
IC50 [9]: 102 nM
microsomal CLint [10]: 50 µL/min/mg

Structure (SMILES): COC[C@H](c1cnn2cc([C@@H](NC(=O)/C(F)=C\C3CC3)C3CCC(F)(F)CC3)nc2c1)N1C[C@@H](C(F)(F)F)NC1=O
IC90 [11]: 45 nM
Activity [12]: Non-Toxic
t1/2 [13]: > 8 h
fold change (FC) [14]: 9
AUClast [15]: 0.53 µM·h
IC50 [1]: 4 nM
IC90 ([1]; time 24 hrs): 37 nM
microsomal CLint [2]: 38 µL/min/mg
Activity (Rattus norvegicus [16]): Dose-Dependent Effect
AUC [3]: 0.024 µM·h
half-life [17]: 2.6 h
fraction unbound [18]: 0.048
Activity (Rattus norvegicus [19]): 60%
solubility [5]: 150 µM (≈ 88.3 µg/mL)
CLH [20]: 58 µL
microsomal CLint [21]: 18 µL/min/mg
fraction unbound [22]: 0.062
AUC(0-t) at 24 h [23]: 1.58 µM·h
half-life [24]: 8.3 h
F [25]: 41%
CLH [26]: 4.2 µL
logD [6]: 3.8
CLH [27]: 5.1 µL
IC50 [28]: 14000 nM
fraction unbound [29]: 0.075
F [7]: 106%
microsomal CLint [30]: 25 µL/min/mg
Activity [31]: Toxic
Activity [32]: Toxic
Activity [33]: Toxic
F [34]: 94%
IC50 (Bile salt export pump): 19000 nM
MTD at 336 h [35]: 1000 mg/kg
half-life [36]: 2 h
MTD at 336 h [37]: 75 mg/kg
Papp A→B [8]: 26 ×10⁻⁶ cm/s
Vd [38]: 3 L/kg
IC50 [9]: 13 nM
microsomal CLint [10]: 58 µL/min/mg
Vd [39]: 3.7 L/kg
IC50 [40]: 11000 nM
AUClast [41]: 4.2 µM·h
Activity [42]: Toxic
Vd [43]: 4.4 L/kg
Activity (Rattus norvegicus [44]): 97%
fraction unbound [45]: 0.094

Structure (SMILES): C=C(F)C(=O)N[C@H](c1cn2ncc([C@@H](COC)N3C[C@@H](C(F)(F)F)NC3=O)cc2n1)C1CCC(F)(F)CC1
IC50 [1]: 27 nM
microsomal CLint [2]: 33 µL/min/mg
AUC [3]: 0.025 µM·h
solubility [5]: > 750 µM
logD [6]: 2.5
F [7]: 113%
Papp A→B [8]: 6.5 ×10⁻⁶ cm/s
IC50 [9]: 31 nM
microsomal CLint [10]: 11 µL/min/mg

Second part, led by results:

IC50 [1]: 4 nM
microsomal CLint [2]: 240 µL/min/mg
AUC [3]: 0.053 µM·h
solubility [5]: 600 µM (≈ 338 µg/mL)
logD [6]: 3
F [7]: 55%
Papp A→B [8]: 17 ×10⁻⁶ cm/s
IC50 [9]: 11 nM
microsomal CLint [10]: 159 µL/min/mg
Structure (SMILES): C/C=C(/F)C(=O)N[C@H](c1cn2ncc([C@@H](COC)N3C[C@@H](C(F)(F)F)NC3=O)cc2n1)C1CCC(F)(F)CC1

IC50 [1]: 8 nM
microsomal CLint [2]: 18 µL/min/mg
AUC [3]: 0.946 µM·h
solubility [5]: 400 µM (≈ 243 µg/mL)
logD [6]: 3
F [7]: 41%
Papp A→B [8]: 3.6 ×10⁻⁶ cm/s
IC50 [9]: 38 nM
microsomal CLint [10]: 37 µL/min/mg
Structure (SMILES): COC[C@H](c1cnn2cc([C@@H](Nc3nnc(C(C)(F)F)o3)C3CCC(F)(F)CC3)nc2c1)N1C[C@@H](C(F)(F)F)NC1=O
Activity (Rattus norvegicus [46]): 64%
